# Experimental data as given in article PMC4667193 (Scientific Reports, 2015).
# Key:
# [1] = tested on: rat primary hippocampal cell culture; assay: intracellular calcium release in hippocampal cells (Fluo4-AM); assay type: cell-based; settings: 10^−5, 10^−4 and 10^−3 M AEME
# Experimental: Hippocampal cells were removed from the plates and previously incubated with Fluo4-AM dye (Invitrogen) dissolved in Neurobasal medium (Gibco®) for one hour[46]. The cells were centrifuged (300 g for 5 minutes at 20 °C), washed with phosphate buffer solution (PBS) without calcium, and plated in microscopy confocal (Zeiss LSM 510, Meta) microplates pretreated with poli-L-lysine. The fluorescence was measured for 90 seconds in the absence and/or in the presence of 10^−5, 10^−4 and 10^−3 M AEME. After this period, 250 mM KCl was added in order to promote neuronal […] and, thus, verify its viability. All measurements were performed with a PBS free-calcium solution. Digitalized images were analyzed through the software Origin 5.
# [2] = tested on: rat primary hippocampal cell culture; assay: DNA fragmentation (propidium iodide, flow cytometry); assay type: cell-based; settings: for cells with fragmented DNA: 24 hours, control 28.6%
# Experimental: DNA fragmentation was assessed using propidium iodide following the method described by Lima et al.[47]. Hippocampal cells were incubated with 10^−4 or 10^−3 M AEME for 12 and 24 hours. Briefly, exposed cells were removed from the culture plate and centrifuged (500 g for 5 minutes) and lysed with a fragmentation buffer ([…] propidium iodide, 0.1% sodium citrate, and 0.1% Triton-X) for 2 hours at room temperature in the dark. DNA fragmentation was analyzed in a flow cytometry (FACSCalibur, Becton Dickinson, CA) using the FL2-A channel (λexcitation = 585 nm and λemission = 642 nm) and […] cells were evaluated per experiment.
# Rat M4 mAChR = biological target: T1, Rat M4 mAChR (Rattus norvegicus, UniProt P08485); assay: [^3H]NMS radioligand competition binding, CHO cell membranes; settings: rat M4, 0.1 nM [^3H]NMS
# T1 construct: host or cells: CHO (CHO-K1) cells
# T1 sequence (P08485 1-478): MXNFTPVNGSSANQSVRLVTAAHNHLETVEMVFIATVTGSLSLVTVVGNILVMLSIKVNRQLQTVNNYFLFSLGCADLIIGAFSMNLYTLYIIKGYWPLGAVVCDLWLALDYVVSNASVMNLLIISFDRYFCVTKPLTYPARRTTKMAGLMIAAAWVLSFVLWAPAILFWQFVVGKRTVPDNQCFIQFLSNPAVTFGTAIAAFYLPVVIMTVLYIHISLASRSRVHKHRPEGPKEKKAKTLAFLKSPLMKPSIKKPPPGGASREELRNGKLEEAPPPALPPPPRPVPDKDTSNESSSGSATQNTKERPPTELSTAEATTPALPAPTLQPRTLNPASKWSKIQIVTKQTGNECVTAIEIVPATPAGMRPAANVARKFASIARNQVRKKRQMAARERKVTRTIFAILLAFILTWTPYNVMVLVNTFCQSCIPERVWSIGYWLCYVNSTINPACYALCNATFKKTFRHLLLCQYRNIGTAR
# Experimental: (§1) Membranes were prepared from CHO cells stably expressing individual rat mAChRs (rM1 to rM5). Briefly, media was removed, cells were washed with PBS and harvested with PBS into a centrifuge bottle. Cells were spun at 2,000 g for 5 minutes at 4 °C. After harvesting, the supernatant was gently discarded and cold membrane preparation buffer [Hanks’ balanced salt solution (HBSS; Invitrogen), 4.17 mM sodium bicarbonate, 20 mM HEPES and 0.5 mM EDTA] was added (10 mL/dish). Cells were then homogenized for 5–10 seconds with a rotary homogenizer (Polytron®) and centrifuged at 20,000g for 20 minutes at 4 °C. The homogenization/centrifugation cycle was repeated twice. After the last centrifugation, the supernatant was gently discarded and the pellet was resuspended in cold membrane preparation buffer (up to 2 mL). All binding reactions were performed in a total volume of 1 mL containing 25 μg of membrane protein. […] The equilibrium binding was terminated by rapid filtration using a 96-well harvester (Brandel®). Filters were washed three times with ice-cold harvesting buffer and were dried overnight. Radioactivity was counted using a TopCount NXT (PerkinElmer®) and counts were normalized to the maximal specific binding in the presence of vehicle. Saturation and competition binding data were analyzed using a weighted nonlinear least-squares interactive curve-fitting program GraphPad Prism (GraphPad Prism Software version 5.0). A mathematical model for one or two binding sites was applied. The equilibrium dissociation constant (KD) and the binding capacity (Bmax) were determined. The inhibition constant (Ki) was determined from competition curves using the Cheng and Prusoff equation[52].
# Rat M5 mAChR [3] = biological target: T2, Rat M5 mAChR (Rattus norvegicus, UniProt P08911); assay: as above; settings: rat M5, 0.1 nM [^3H]NMS
# T2 construct: host or cells: CHO (CHO-K1) cells
# T2 sequence (P08911 1-531): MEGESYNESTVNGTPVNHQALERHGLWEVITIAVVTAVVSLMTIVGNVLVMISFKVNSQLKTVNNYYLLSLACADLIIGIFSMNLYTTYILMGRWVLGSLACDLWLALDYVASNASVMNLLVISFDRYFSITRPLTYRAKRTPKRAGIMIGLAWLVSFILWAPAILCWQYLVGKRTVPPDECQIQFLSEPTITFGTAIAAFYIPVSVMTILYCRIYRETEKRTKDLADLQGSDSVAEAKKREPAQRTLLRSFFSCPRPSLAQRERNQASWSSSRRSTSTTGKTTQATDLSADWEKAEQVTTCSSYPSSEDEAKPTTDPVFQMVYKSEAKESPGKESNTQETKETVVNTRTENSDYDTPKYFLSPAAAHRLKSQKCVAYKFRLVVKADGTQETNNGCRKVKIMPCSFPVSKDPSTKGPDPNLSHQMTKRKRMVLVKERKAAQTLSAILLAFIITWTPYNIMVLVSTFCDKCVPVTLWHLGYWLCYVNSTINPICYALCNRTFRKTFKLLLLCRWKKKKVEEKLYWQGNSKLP
# Experimental: as §1
# Rat M5 mAChR [4] = biological target: T2, Rat M5 mAChR; assay: calcium mobilization assay in CHO cells, incl. Schild analysis; assay type: cell-based
# Experimental: CHO cells expressing rM1, rM3 and rM5 were plated at 4 × 10^4 cells per well, whereas rM2 and rM4 were plated at 6 × 10^4 cells per well, in standard growth media (as described previously under “cell culture”) in 96-well plates 24 hours before assay and were incubated overnight at 37 °C in 5% CO2. […] Cells were incubated for 45 minutes (37 °C, 5% CO2) for dye loading. Fluo4-AM dye was removed, cells were washed and replaced with 40 μL of calcium assay buffer. AEME concentration-response curves were determined in single-add experiments. […] All compounds were dissolved in dimethyl sulfoxide (DMSO) and then in calcium assay buffer to obtain a final DMSO concentration of 0.3%. […] These values were fit using GraphPad Prism version 5.0 to determine EC50 values and Schild slope and pA2 in the Schild analyses.
# [5] = biological target: muscarinic cholinergic receptors; settings: [^3H]QNB, rat hippocampus; cited from earlier work
# caspase-3 = tested on: caspase-3; design: method as in PMID 22523227; settings: hippocampal neurons, 6 hours of exposure; cited from earlier work
# [6] = rat M5, AEME 10^−6 to 10^−3.5 M vs acetylcholine
structure (smiles),measurement,setting,value
"COC(=O)C1=CC[C@@H]2CC[C@H]1N2C [AEME, anhydroecgonine methyl ester]",intracellular calcium release,[1],concentration-dependent increase
same,cells with fragmented DNA,[2]; 10^−3 M,44.1%
same,DNA fragmentation,"[2]; 10^−4 or 10^−3 M, 12 hours",same pattern of DNA fragmentation as the control group
same,cells with fragmented DNA,[2]; lower AEME concentration (10^−4 M),32.1%
same,Ki,Rat M4 mAChR,24.5 µM
same,Ki,Rat M5 mAChR [3],29.5 µM
same,mechanism of action,"Rat M5 mAChR [4]; rat M5, 100 μM AEME on ACh curve",antagonized the effects of ACh
same,Schild slope,Rat M5 mAChR [4]; [6],0.95 ± 0.07
same,"pA2 (antagonist affinity, Schild analysis)",Rat M5 mAChR [4]; [6],4.87 ± 0.10
same,calcium increase,"Rat M5 mAChR [4]; rat M5, agonist mode",no calcium increase
same,pKi,[5],4.15 ± 0.15
same,caspase-3 activity,caspase-3,increased
